Experimental data reported in patent US20250049970A1, “DLL3 TARGETING PEPTIDES AND CONSTRUCTS THEREOF” (MARIANA ONCOLOGY INC., priority 2023, published 2025).
*1 amine or outer side, *2 acyl side, *3 side chain or, on linkers, in order; H or OH if unused. Where a SMILES comes first, the peptide text is derived from it. Bridges are numbered along the chain shown (N, C = ends). [ ]: non-standard residue; d: D form. The star is where a group is joined. Ala(piperidin-4-yl) = O=C([C@H](CC1CCN([*:3])CC1)N[*:1])[*:2]; DOTA = O=C(O)CN1CCN(CC(=O)O)CCN(CC(=O)*)CCN(CC(=O)O)CC1; X5 = O=C(Cc1ccc(Br)cc1)NCCOCCOCCOCCOCCOCCOCCOCCOCC(=O)*; X2 = O=C(Cc1ccc(I)cc1)NCCOCCOCCOCCOCCOCCOCCOCCOCC(=O)*; NMeW = CN[C@@H](Cc1c[nH]c2ccccc12)C(=O)O; 2Nal = N[C@@H](Cc1ccc2ccccc2c1)C(=O)O; NMetBuAla = CN[C@@H](CC(C)(C)C)C(=O)O; oXylylene = c1ccc(C[*:2])c(C[*:1])c1; tBuAla = CC(C)(C)C[C@H](N)C(=O)O; Chg = N[C@H](C(=O)O)C1CCCCC1; CH2 = C([*:1])[*:2]

target: T1, DLL3 (Homo sapiens, UniProt Q9NYJ7); assay: SPR KD, biotinylated human DLL3 on streptavidin chip (Table 8); parameters: biotin (biotinylated); settings: SPR KD, biotinylated human DLL3 on streptavidin sensor chip, 25° C., 1:1 binding model
T1 sequence (Q9NYJ7 27-618): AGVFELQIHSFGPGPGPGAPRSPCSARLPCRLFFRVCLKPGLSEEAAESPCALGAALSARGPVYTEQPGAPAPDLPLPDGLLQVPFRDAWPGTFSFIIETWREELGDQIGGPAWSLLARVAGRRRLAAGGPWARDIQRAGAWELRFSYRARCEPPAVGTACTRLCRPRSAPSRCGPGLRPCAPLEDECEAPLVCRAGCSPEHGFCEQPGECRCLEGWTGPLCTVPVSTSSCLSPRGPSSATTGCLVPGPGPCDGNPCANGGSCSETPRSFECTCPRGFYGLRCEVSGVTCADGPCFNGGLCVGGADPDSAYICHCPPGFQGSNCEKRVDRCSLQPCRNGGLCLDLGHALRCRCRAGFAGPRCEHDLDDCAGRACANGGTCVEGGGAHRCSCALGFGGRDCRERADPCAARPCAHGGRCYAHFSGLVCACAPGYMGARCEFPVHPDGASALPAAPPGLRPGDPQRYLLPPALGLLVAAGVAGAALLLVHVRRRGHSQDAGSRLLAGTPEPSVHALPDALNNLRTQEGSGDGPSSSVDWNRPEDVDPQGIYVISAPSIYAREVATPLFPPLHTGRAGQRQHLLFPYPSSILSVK
Description: Biotinylated target ligand human DLL3 was immobilized on a streptavidin sensor chip. A reference surface was set up for nonspecific binding and refractive index changes. […] Sensorgram curves were fitted with 1:1 binding model, and affinity and kinetic parameters were obtained using Biacore Insight evaluation 4.0. software.

| SMILES | Kd [nM] |
| --- | --- |
| CC(=O)N[C@@H](Cc1c[nH]c2ccccc12)C(=O)N[C@H](C(=O)N[C@H](C(=O)N[C@H]1CSSC[C@@H](C(=O)N[C@@H](Cc2c[nH]c3ccccc23)C(=O)N2CCC[C@H]2C(=O)N[C@H](CCCCNC(=O)COCCOCCOCCOCCOCCOCCOCCOCCNC(=O)Cc2ccc(I)cc2)C(N)=O)NC(=O)[C@H](CC(=O)O)NC(=O)[C@H](CCCCNC(=O)CN2CCN(CC(=O)O)CCN(CC(=O)O)CCN(CC(=O)O)CC2)NC(=O)[C@H](Cc2ccc3ccccc3c2)NC(=O)[C@H](CC(N)=O)NC(=O)[C@H](CC2CCNCC2)NC1=O)C1CCCCC1)[C@@H](C)O [compound 420] (Ac-WT[Chg]C[Ala(piperidin-4-yl)]N[2Nal]K(DOTA)DCWP[dK](X2)-NH2; disulfide 4-10) | < 1 |

same assay, conditions: biotinylated human DLL3 on streptavidin sensor chip, 25° C., 1:1 binding model; read-out: SPR KD

| Kd [nM] | SMILES |
| --- | --- |
| 100 to 300 | CC[C@H](C)[C@H](NC(=O)[C@@H](NC(=O)[C@H](Cc1c[nH]c2ccccc12)NC(C)=O)[C@@H](C)O)C(=O)N[C@H]1CSSC[C@@H](C(=O)N(C)[C@@H](Cc2c[nH]c3ccccc23)C(=O)N2CCC[C@H]2C(=O)O)NC(=O)[C@H](CC(=O)O)NC(=O)[C@H](Cc2c[nH]cn2)NC(=O)[C@H](Cc2c[nH]c3ccccc23)NC(=O)[C@H](CC(N)=O)NC(=O)[C@H](CC(N)=O)NC1=O [compound 389, Ac-W-T-I-C(3)-N-N-W-H-D-C(3)-(NmeW)-P-CONH2] (Ac-WTICNNWHDC[NMeW]P-OH; disulfide 4-10) |
| 10 to 100 | CC[C@H](C)[C@H](NC(=O)[C@@H](NC(=O)[C@H](Cc1c[nH]c2ccccc12)NC(=O)[C@H](CCSC)NC(C)=O)[C@@H](C)O)C(=O)N[C@H]1CSSC[C@@H](C(=O)N[C@@H](Cc2c[nH]c3ccccc23)C(=O)N2CCC[C@H]2C(N)=O)NC(=O)[C@H](CC(=O)O)NC(=O)[C@H](Cc2cnc[nH]2)NC(=O)[C@H](Cc2c[nH]c3ccccc23)NC(=O)[C@H](CC(N)=O)NC(=O)[C@@H](C)NC1=O [compound 7, Ac-M-W-T-I-C(3)-(D-Ala)-N-W-H-D-C(3)-W-P-CONH2] (Ac-MWTIC[dA]NWHDCWP-NH2; disulfide 5-11) |
| 1 to 10 | CC(=O)N[C@@H](Cc1c[nH]c2ccccc12)C(=O)N[C@H](C(=O)N[C@H](C(=O)N[C@H]1CSCc2ccccc2CSC[C@@H](C(=O)N[C@@H](Cc2c[nH]c3ccccc23)C(=O)N2CCC[C@H]2C(N)=O)NC(=O)[C@H](CC(=O)O)NC(=O)[C@H](CCCCNC(=O)CN2CCN(CC(=O)O)CCN(CC(=O)O)CCN(CC(=O)O)CC2)NC(=O)[C@H](Cc2ccc3ccccc3c2)NC(=O)[C@H](CC(N)=O)NC(=O)[C@H](CC2CCNCC2)NC1=O)C1CCCCC1)[C@@H](C)O [compound 401, Ac-W-T-(Chg)-C(oDBX)-[3-(4-piperidinyl)-Ala]-N-(2Nal)-Lys(DOTA)-D-C(3)-W-P-CONH2] (Ac-WT[Chg]C[Ala(piperidin-4-yl)]N[2Nal]K(DOTA)DCWP-NH2; linker 4-10 via oXylylene) |
| < 1 | CC(=O)N[C@@H](Cc1c[nH]c2ccccc12)C(=O)N[C@H](C(=O)N(C)[C@@H](CC(C)(C)C)C(=O)N[C@H]1CSSC[C@@H](C(=O)N[C@@H](Cc2c[nH]c3ccccc23)C(=O)N2CCC[C@H]2C(N)=O)NC(=O)[C@H](CC(=O)O)NC(=O)[C@H](CCCCNC(=O)CN2CCN(CC(=O)O)CCN(CC(=O)O)CCN(CC(=O)O)CC2)NC(=O)[C@H](Cc2ccc3ccccc3c2)NC(=O)[C@H](CC(N)=O)NC(=O)[C@H](CC2CCNCC2)NC1=O)[C@@H](C)O [compound 419, Ac-W-T-(NMe-tBuAla)-C(3)-[3-(4piperdinyl)-Ala]-N-(2Nal)-Lys(DOTA)-D-C(3)-W-P-CONH2] (Ac-WT[NMetBuAla]C[Ala(piperidin-4-yl)]N[2Nal]K(DOTA)DCWP-NH2; disulfide 4-10) |
| < 1 | CC(=O)NCCCC[C@@H](NC(=O)[C@@H]1CCCN1C(=O)[C@H](Cc1c[nH]c2ccccc12)NC(=O)[C@@H]1CSCSC[C@H](NC(=O)[C@H](CC(C)(C)C)NC(=O)[C@@H](NC(=O)[C@H](Cc2c[nH]c3ccccc23)NC(C)=O)[C@@H](C)O)C(=O)N[C@@H](CC2CCNCC2)C(=O)N[C@@H](CC(N)=O)C(=O)N[C@@H](Cc2ccc3ccccc3c2)C(=O)N[C@@H](CCCCNC(=O)CN2CCN(CC(=O)O)CCN(CC(=O)O)CCN(CC(=O)O)CC2)C(=O)N[C@@H](CC(=O)O)C(=O)N1)C(N)=O [compound 438, Ac-W-T-(t-Bu-Ala)-C(1)-[3-(4-piperidinyl)-Ala]-N-(2Nal)-Lys(DOTA)-D-C(1)-W-P-[D-Lys(Ac)]-CONH2] (Ac-WT[tBuAla]C[Ala(piperidin-4-yl)]N[2Nal]K(DOTA)DCWP[dK](Ac)-NH2; linker 4-10 via CH2) |
| 10 to 100 | CC[C@H](C)[C@H](NC(=O)[C@@H](NC(=O)[C@H](Cc1c[nH]c2ccccc12)N(C)C(C)=O)[C@@H](C)O)C(=O)N[C@H]1CSSC[C@@H](C(=O)N[C@@H](Cc2c[nH]c3ccccc23)C(=O)N2CCC[C@H]2C(=O)O)NC(=O)[C@H](CC(=O)O)NC(=O)[C@H](Cc2c[nH]cn2)NC(=O)[C@H](Cc2c[nH]c3ccccc23)NC(=O)[C@H](CC(N)=O)NC(=O)[C@H](CC(N)=O)NC1=O [compound 382, Ac-(NmeW)-T-I-C(3)-N-N-W-H-D-C(3)-W-P-CONH2] (Ac-[NMeW]TICNNWHDCWP-OH; disulfide 4-10) |
| < 1 | CC(=O)NCCCC[C@@H](NC(=O)[C@@H]1CCCN1C(=O)[C@H](Cc1c[nH]c2ccccc12)NC(=O)[C@@H]1CSCSC[C@H](NC(=O)[C@H](CC(C)(C)C)NC(=O)[C@@H](NC(=O)[C@H](Cc2c[nH]c3ccccc23)NC(C)=O)[C@@H](C)O)C(=O)N[C@@H](CC2CCNCC2)C(=O)N[C@@H](CC(N)=O)C(=O)N[C@@H](Cc2ccc3ccccc3c2)C(=O)N[C@@H](CCCCNC(=O)CN2CCN(CC(=O)O)CCN(CC(=O)O)CCN(CC(=O)O)CC2)C(=O)N[C@@H](CC(=O)O)C(=O)N1)C(=O)O [compound 439, Ac-W-T-(t-Bu-Ala)-C(1)-[3-(4-piperidinyl)-Ala]-N-(2Nal)-Lys(DOTA)-D-C(1)-W-P-[D-Lys(Ac)]-COOH] (Ac-WT[tBuAla]C[Ala(piperidin-4-yl)]N[2Nal]K(DOTA)DCWP[dK](Ac)-OH; linker 4-10 via CH2) |
| < 1 | CCC(C)(C)[C@H](NC(=O)[C@@H](NC(=O)[C@H](Cc1c[nH]c2ccccc12)NC(C)=O)[C@@H](C)O)C(=O)N[C@H]1CSSC[C@@H](C(=O)N[C@@H](Cc2c[nH]c3ccccc23)C(=O)N2CCC[C@H]2C(N)=O)NC(=O)[C@H](CC(=O)O)NC(=O)[C@H](CCCCNC(=O)CN2CCN(CC(=O)O)CCN(CC(=O)O)CCN(CC(=O)O)CC2)NC(=O)[C@H](Cc2ccc3ccccc3c2)NC(=O)[C@H](CC(N)=O)NC(=O)C(CN2CCOCC2)NC1=O (single isomer, unassigned) [compound 311, Ac-W-T-(α-tert-amylGly)-C(3)-[3-(1-morpholinyl)-Ala]-N-(2Nal)-Lys(DOTA)-D-C(3)-W-P-CONH2] |
| < 1 | CC(=O)N[C@@H](Cc1c[nH]c2ccccc12)C(=O)N[C@H](C(=O)N[C@H](C(=O)N[C@H]1CSCSC[C@@H](C(=O)N[C@@H](Cc2c[nH]c3ccccc23)C(=O)N2CCC[C@H]2C(=O)N[C@H](CCCCNC(=O)COCCOCCOCCOCCOCCOCCOCCOCCNC(=O)Cc2ccc(Br)cc2)C(N)=O)NC(=O)[C@H](CC(=O)O)NC(=O)[C@H](CCCCNC(=O)CN2CCN(CC(=O)O)CCN(CC(=O)O)CCN(CC(=O)O)CC2)NC(=O)[C@H](Cc2ccc3ccccc3c2)NC(=O)[C@H](CC(N)=O)NC(=O)[C@H](CC2CCNCC2)NC1=O)C1CCCCC1)[C@@H](C)O [compound 418] (Ac-WT[Chg]C[Ala(piperidin-4-yl)]N[2Nal]K(DOTA)DCWP[dK](X5)-NH2; linker 4-10 via CH2) |
| < 1 | CC[C@H](C)[C@H](NC(=O)[C@@H](NC(=O)[C@H](Cc1c[nH]c2ccccc12)NC(C)=O)[C@@H](C)O)C(=O)N[C@H]1CSSC[C@@H](C(=O)N[C@@H](Cc2c[nH]c3ccccc23)C(=O)N2CCC[C@H]2C(N)=O)NC(=O)[C@H](CC(=O)O)NC(=O)[C@H](CCCCNC(=O)CN2CCN(CC(=O)O)CCN(CC(=O)O)CCN(CC(=O)O)CC2)NC(=O)[C@H](Cc2ccc3ccccc3c2)NC(=O)[C@H](CC(N)=O)NC(=O)[C@H](CC(N)=O)NC1=O [compound 254] (Ac-WTICNN[2Nal]K(DOTA)DCWP-NH2; disulfide 4-10) |
| 1 to 10 | CC(=O)N[C@@H](Cc1c[nH]c2ccccc12)C(=O)N[C@H](C(=O)N[C@H](C(=O)N[C@H]1CSSC[C@@H](C(=O)N[C@@H](Cc2c[nH]c3ccccc23)C(=O)N2CCC[C@H]2C(N)=O)NC(=O)[C@H](CC(=O)O)NC(=O)[C@H](CCCCNC(=O)CN2CCN(CC(=O)O)CCN(CC(=O)O)CCN(CC(=O)O)CC2)NC(=O)[C@H](Cc2ccc3ccccc3c2)NC(=O)[C@H](CC(N)=O)NC(=O)[C@H](CN2CCOCC2)NC1=O)C(C)(C)C)[C@@H](C)O (single isomer, unassigned) [compound 304, Ac-W-T-(Tbg)-C(3)-[3-(1-morpholinyl)-Ala]-N-(2Nal)-Lys(DOTA)-D-C(3)-W-P-CONH2] |
